What all share (type): cell-based, Human
Assay [1] concerns H1437. Put plainly: MTT cell viability assay, H1437. Here is the method: (§1) Human NSCLC cell lines A549, H1437, H2087, H522, and HCC827 were obtained from the Korean Cell Line Bank (KCLB, Seoul, Korea). These cells were cultured in RPMI-1640 medium (Gibco, N.Y., USA) supplemented with 10% FBS (Gibco) and 1% penicillin-streptomycin (HyClone Laboratories, Logan, Utah, USA). All cell lines were cultured under standard conditions (5% CO2, humid environment, 37° C.). A549 cells were seeded at a density of 1×10^4 cells/well and H1437, H2087, H522, HCC827, and MRCS cells at a density of 2×10^4 cells/well in 96-well plates and were cultured until cells reach approximately 70-80% confluency. The NSCLC cells were treated with plant hormones for 48 hours. Stock solution of each plant hormone was diluted with culture medium, wherein concentrations of DMSO, water, methanol, and ethanol in the culture medium were below 1% (v/v). The half-maximal inhibitory concentration (IC50) was calculated using CompuSyn software (ComboSyn Inc., Paramus, N.J., USA).
(§2) The inhibitory effect of plant hormones and their derivatives was investigated on 5 NSCLC cell lines (A549, H1437, H2087, H522, and HCC827). The NSCLC cells were treated with ABA, Cor, ethephon, GR-24, IAA, KR, MJ, N6b, N6i, oTR, and SS-HCS at concentrations of 0.1, 0.5, 1, 5, 10, 50, and 100 μM. Cell viability and IC50 values for 48 hours were investigated by performing the MTT assay.
Background: Tetrazolium assays rely on reduction of a dye to a coloured formazan, in cell work by metabolically active cells.

Assay [2] relates to A549. The assay can be described thus: MTT cell viability assay, A549. Here is the method: as §1, §2
Assay [3] has as its system H2087. Put plainly: MTT cell viability assay, H2087. Here is the method: as §1, §2
Assay [4] deals with HCC827. Put plainly: MTT cell viability assay, HCC827. Here is the method:
as §1, §2

For assay [5], the system named is H522. The assay can be described thus: MTT cell viability assay, H522. The procedure:
as §1, §2

Assay [6] deals with NSCLC cells. Put plainly: MTT cell viability assay, NSCLC cells overall. As to conditions: Homo sapiens; 48 hours, MTT assay, 5 NSCLC cell lines. The procedure:
as §1, §2

Setting [7] is: Homo sapiens, NCI-H1437, 48 hours.
Where [8] appears, read: Homo sapiens, NCI-H2087, 48 hours.
[9] abbreviates: Homo sapiens, NCI-H522, 48 hours.

SMILES strings stand for the structures.

With `O=P(O)(O)CCCl` [Ethephon, ethephon], the IC50 is > 100 µM in assay [1] (setting [7]); > 100 µM in assay [2] (Homo sapiens, A549, 48 hours); > 100 µM in assay [3] (setting [8]); > 100 µM in assay [4] (Homo sapiens, HCC827, 48 hours); > 100 µM in assay [5] (setting [9]).
In the case of `CC1=CC(=O)CC(C)(C)[C@@]1(O)/C=C/C(C)=C\C(=O)O` [ABA, abscisic acid], the IC50 is > 100 µM in assay [1] (setting [7]); > 100 µM in assay [2] (Homo sapiens, A549, 48 hours); > 100 µM in assay [3] (setting [8]); > 100 µM in assay [4] (Homo sapiens, HCC827, 48 hours); > 100 µM in assay [5] (setting [9]).
Take `CC/C=C\CC1C(=O)CCC1CC(=O)OC` (stereo not shown) [MJ, methyl jasmonate]: the IC50 in assay [1] (setting [7]) is > 100 µM; in assay [2] (Homo sapiens, A549, 48 hours) it was > 100 µM; in assay [3] (setting [8]), > 100 µM; in assay [4] (Homo sapiens, HCC827, 48 hours) it was > 100 µM; in assay [5] (setting [9]), > 100 µM.
Consider `CC[C@H]1C=C(C(=O)N[C@@]2(C(=O)O)C[C@@H]2CC)[C@H]2CCC(=O)[C@H]2C1` [Cor, coronatine], for which the concentration for half-maximal inhibition (IC50) in assay [1] (48 hours), in assay [2] (48 hours), in assay [3] (48 hours), in assay [4] (48 hours) and in assay [5] (48 hours) was > 100 µM in each case.
With `OC[C@H]1O[C@@H](n2cnc3c(NCc4ccco4)ncnc32)[C@H](O)[C@@H]1O` [KR, Kinetin riboside], the IC50 in assay [1] (setting [7]) is 76.8 ± 13.7 µM; in assay [2] (Homo sapiens, A549, 48 hours), 12.3 ± 1.42 µM; in assay [6], < 100 µM; in assay [3] (setting [8]), 98.5 ± 6.72 µM; in assay [4] (Homo sapiens, HCC827, 48 hours), 33.13 ± 0.14 µM; in assay [5] (setting [9]), 73 ± 10.9 µM.
`CC[C@@H](C(C)C)[C@@H](O)[C@H](O)[C@@H](C)[C@H]1CC[C@H]2[C@@H]3CC(=O)[C@H]4C[C@H](O)[C@H](O)C[C@]4(C)[C@H]3CC[C@]12C` [SS-HCS, SS-homocastasterone]: the IC50 was 34.7 ± 2.04 µM in assay [1] (48 hours); 87.5 ± 15.5 µM in assay [2] (48 hours); 85.4 ± 8.81 µM in assay [3] (48 hours); 72.3 ± 13.6 µM in assay [4] (48 hours); > 100 µM in assay [5] (48 hours).
In the case of `CC1=C[C@H](O/C=C2/C(=O)O[C@@H]3c4ccccc4C[C@H]23)OC1=O` [GR-24, Gerald Rosebery-24], the IC50 in assay [1] (48 hours), in assay [2] (48 hours), in assay [3] (48 hours), in assay [4] (48 hours) and in assay [5] (48 hours) was > 100 µM throughout.
As to `OC[C@H]1O[C@@H](n2cnc3c(NCc4ccccc4)ncnc32)[C@H](O)[C@@H]1O` [N^6b, N^6-benzyladenosine, reference compound], in assay [6], the IC50 is < 100 µM.

As a reminder, the IC50 is the midpoint of a concentration-inhibition curve. The low end stands for inhibition by little substance, the high end for a need for much substance.

Values taken from patent US20230241088A1, “COMPOSITION FOR PREVENTING OR TREATING LUNG CANCER COMPRISING ORTHO-TOPOLIN RIBOSIDE AS ACTIVE INGREDIENT” (CHUNG-ANG UNIVERSITY INDUSTRY-ACADEMY COOPERATION FOUNDATION, priority 2022, published 2023).
